Measurements: ChEMBL document CHEMBL6182926, “Design, Synthesis, and Biological Activity Evaluation of Deuterated Diphenyl Azole Alcohol-Based CYP51 Inhibitors” (J Med Chem, 2025)
≈ marks a conversion by molar mass, not a printed value.

Tests used:
[1] = Tmax in Sprague-Dawley rat at 3 mg/kg, iv by LC-MS/MS analysis; type: ADME, organism-based; details: in vivo
Candida albicans [2] = assay: Antifungal activity against Candida albicans SC5314 assessed as reduction in Lanosterol at 0.05 ug/ml measured after 18 hrs incubation by gas chromatography-mass spectrometry (GCMS) analysis; type: functional; design: scale not given: the % may be the effect or the level left; details: dose 0.05 µg/ml
Cytochrome P450 1A2 = biological target: T1, Cytochrome P450 1A2 (Homo sapiens, UniProt P05177); assay: Inhibition of CYP1A2 in human liver microsomes using phenacetin as substrate measured after 10 mins by LC/MS/MS analysis; type: ADME, Microsome
T1 sequence (P05177 whole entry): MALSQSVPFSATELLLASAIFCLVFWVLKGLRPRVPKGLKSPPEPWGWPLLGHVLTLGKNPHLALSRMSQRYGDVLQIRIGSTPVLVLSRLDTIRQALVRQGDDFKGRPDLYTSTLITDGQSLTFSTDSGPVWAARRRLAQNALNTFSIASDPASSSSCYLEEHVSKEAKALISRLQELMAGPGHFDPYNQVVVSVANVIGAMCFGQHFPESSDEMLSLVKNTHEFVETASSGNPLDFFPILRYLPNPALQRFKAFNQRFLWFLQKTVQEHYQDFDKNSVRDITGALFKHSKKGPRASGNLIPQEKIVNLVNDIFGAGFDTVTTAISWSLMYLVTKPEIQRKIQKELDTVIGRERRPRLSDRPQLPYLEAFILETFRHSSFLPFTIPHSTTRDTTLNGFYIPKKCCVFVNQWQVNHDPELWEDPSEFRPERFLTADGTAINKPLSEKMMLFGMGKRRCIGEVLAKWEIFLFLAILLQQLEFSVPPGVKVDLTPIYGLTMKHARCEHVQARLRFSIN

[3] = Cytotoxicity against human HUVEC cells measured after 72 hrs by MTT assay; type: toxicity, cell-based
[4] = (§1) Selectivity ratio, ratio of IC50 for cytotoxicity against human SH-SY5Y cells to MIC80 for antifungal activity against Candida albicans CPCC 400616; type: toxicity, cell-based
Nakaseomyces glabratus [5] = assay: Fungicidal activity against Clinical isolate Candida glabrata assessed as concentration of colonies (< 5) measured after 48 hrs incubation; type: functional
[6] = Half life in Sprague-Dawley rat at 10 mg/kg, po by LC-MS/MS analysis; type: ADME, organism-based; details: in vivo
[7] = Tmax in Sprague-Dawley rat at 10 mg/kg, po by LC-MS/MS analysis; type: ADME, organism-based; details: in vivo
Cryptococcus neoformans [8] = assay: Antifungal activity against Cryptococcus neoformans CGMCC 2.3161 assessed as reduction in Lanosterol at 0.0125 ug/ml measured after 18 hrs incubation by gas chromatography-mass spectrometry (GCMS) analysis; type: functional; design: scale not given: the % may be the effect or the level left; details: dose 0.0125 µg/ml
Candida albicans [9] = assay: Antifungal activity against Candida albicans SC 5314 assessed as inhibition of visible growth; type: functional
Cryptococcus neoformans [10] = assay: Antifungal activity against Cryptococcus neoformans CGMCC 2.3161 assessed as reduction in 14alpha-methylsterols at 0.0125 ug/ml measured after 18 hrs incubation by gas chromatography-mass spectrometry (GCMS) analysis (reference value: 2.32%); type: functional; design: scale not given: the % may be the effect or the level left; details: dose 0.0125 µg/ml
Candida albicans [11] = assay: Antifungal activity against Candida albicans SC5314 assessed as reduction in Eburicol at 0.05 ug/ml measured after 18 hrs incubation by gas chromatography-mass spectrometry (GCMS) analysis; type: functional; design: scale not given: the % may be the effect or the level left; details: dose 0.05 µg/ml
[12] = Toxicity in ICR mouse assessed as mortality at 500 mg/kg, po single dose measured for 7 days; type: organism-based; details: in vivo, 168 h, time 7 day
Cytochrome P450 3A4 = Cytochrome P450 3A4 (Homo sapiens, UniProt P08684); assay: Inhibition of CYP3A4 in human liver microsomes using midazolam as substrate measured after 10 mins by LC/MS/MS analysis; type: ADME, Microsome
Cytochrome P450 3A4, sequence (P08684 whole entry): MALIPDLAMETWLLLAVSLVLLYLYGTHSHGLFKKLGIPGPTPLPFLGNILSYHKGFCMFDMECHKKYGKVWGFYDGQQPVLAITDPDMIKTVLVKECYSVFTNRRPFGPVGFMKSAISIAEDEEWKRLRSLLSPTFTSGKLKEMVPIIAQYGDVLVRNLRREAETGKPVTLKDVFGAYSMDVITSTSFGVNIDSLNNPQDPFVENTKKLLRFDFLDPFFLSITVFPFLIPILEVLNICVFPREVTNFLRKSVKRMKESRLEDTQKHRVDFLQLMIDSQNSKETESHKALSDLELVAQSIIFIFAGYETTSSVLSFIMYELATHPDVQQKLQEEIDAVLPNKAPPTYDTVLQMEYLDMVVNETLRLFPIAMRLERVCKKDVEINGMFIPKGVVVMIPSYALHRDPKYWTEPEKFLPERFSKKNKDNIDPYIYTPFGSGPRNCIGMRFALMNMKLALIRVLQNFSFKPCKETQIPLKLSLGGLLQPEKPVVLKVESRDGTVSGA

Candida albicans [13] = assay: Antifungal activity against Candida albicans CPCC 400616 assessed as inhibition of visible growth; type: functional
[14] = MRT (0 to infinity) in Sprague-Dawley rat at 3 mg/kg, iv by LC-MS/MS analysis; type: ADME, organism-based; details: in vivo
[15] = Selectivity ratio, ratio of IC50 for cytotoxicity against human SH-SY5Y cells to MIC80 for antifungal activity against Candida albicans SC 5314; type: toxicity, cell-based
Nakaseomyces glabratus [16] = assay: Antifungal activity against Clinical isolate Candida glabrata assessed as inhibition of visible growth; type: functional
[17] = Cmax in Sprague-Dawley rat at 10 mg/kg, po by LC-MS/MS analysis; type: ADME, organism-based; details: in vivo
[18] = Toxicity in ICR mouse assessed as structural alteration in kidney at 500 mg/kg, po single dose measured for 7 days by hematoxylin-eosin (H/E) staining analysis; type: organism-based; details: in vivo, 168 h, time 7 day
Cryptococcus neoformans [19] = assay: Antifungal activity against Cryptococcus neoformans CGMCC 2.3161 assessed as reduction in ergosterol at 0.125 ug/ml measured after 18 hrs incubation by gas chromatography-mass spectrometry (GCMS) analysis (reference value: 94.48%); type: functional; design: scale not given: the % may be the effect or the level left; details: dose 0.125 µg/ml
[20] = Metabolic stability in human liver microsomes assessed as compound remaining measured up to 60 mins by LC-MS/MS analysis; type: ADME, Microsome; details: liver microsomes, read-out: Activity
Cryptococcus neoformans [21] = assay: Antifungal activity against Cryptococcus neoformans CGMCC 2.3161 assessed as reduction in Obtusifoliol at 0.125 ug/ml measured after 18 hrs incubation by gas chromatography-mass spectrometry (GCMS) analysis; type: functional; design: scale not given: the % may be the effect or the level left; details: dose 0.125 µg/ml
[22] = Subacute toxicity in ICR mouse assessed as mortality at 100 mg/kg, oral gavage for 14 consecutive days; type: organism-based; details: in vivo, 336 h, time 14 day
Cytochrome P450 2D6 = Cytochrome P450 2D6 (Homo sapiens, UniProt P10635); assay: Inhibition of CYP2D6 in human liver microsomes using dextromethorphan as substrate measured after 10 mins by LC/MS/MS analysis; type: ADME, Microsome
Cytochrome P450 2D6, sequence (P10635 whole entry): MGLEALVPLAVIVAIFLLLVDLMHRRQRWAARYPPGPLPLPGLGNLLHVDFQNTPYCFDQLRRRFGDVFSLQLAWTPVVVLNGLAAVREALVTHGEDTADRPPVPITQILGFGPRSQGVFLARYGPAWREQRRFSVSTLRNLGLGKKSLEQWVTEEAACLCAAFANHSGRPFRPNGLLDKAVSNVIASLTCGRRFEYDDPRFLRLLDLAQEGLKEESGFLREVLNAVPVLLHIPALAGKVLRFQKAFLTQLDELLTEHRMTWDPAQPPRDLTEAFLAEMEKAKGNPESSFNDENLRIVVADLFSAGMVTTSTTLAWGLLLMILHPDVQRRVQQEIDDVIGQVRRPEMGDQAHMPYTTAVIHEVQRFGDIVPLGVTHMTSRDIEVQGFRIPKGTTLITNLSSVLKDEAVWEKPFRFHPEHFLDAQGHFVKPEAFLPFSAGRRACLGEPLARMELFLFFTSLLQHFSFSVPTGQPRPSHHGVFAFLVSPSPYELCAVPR

[23] = Selectivity ratio, ratio of IC50 for cytotoxicity against human SH-SY5Y cells to MIC80 for antifungal activity against Clinical isolate Candida glabrata; type: toxicity, cell-based
[24] = Selectivity ratio, ratio of IC50 for cytotoxicity against human SH-SY5Y cells to MIC80 for antifungal activity against Candida tropicalis CGMCC 2.3739; type: toxicity, cell-based
[25] = Selectivity ratio, ratio of IC50 for cytotoxicity against human SH-SY5Y cells to MIC80 for antifungal activity against Candida parapsilosis GIM 2.190; type: toxicity, cell-based
[26] = Oral bioavailability in Sprague-Dawley rat at 10 mg/kg by LC-MS/MS analysis; type: ADME, organism-based; details: in vivo
[27] = Toxicity in ICR mouse assessed as change in body weight at 500 mg/kg, po single dose measured for 7 days; type: organism-based; details: in vivo, 168 h, time 7 day
[28] = Subacute toxicity in ICR mouse assessed as structural alteration in liver at 100 mg/kg, oral gavage for 14 consecutive days by hematoxylin-eosin (H/E) staining analysis; type: organism-based; details: in vivo, 336 h, time 14 day
[29] = Toxicity in ICR mouse assessed as structural alteration in liver at 500 mg/kg, po single dose measured for 7 days by hematoxylin-eosin (H/E) staining analysis; type: organism-based; details: in vivo, 168 h, time 7 day
[30] = as §1; type: toxicity, cell-based; remark: listed apart in the source
[31] = Cmax in Sprague-Dawley rat at 3 mg/kg, iv by LC-MS/MS analysis; type: ADME, organism-based; details: in vivo
Nakaseomyces glabratus [32] = assay: Fungicidal index, ratio of MFC for fungicidal activity against Clinical isolate Candida glabrata to MIC80 for antifungal activity against Clinical isolate Candida glabrata; type: functional

[2H]C([2H])([2H])N(Cc1ccc(-c2ccc(OC(F)(F)F)cc2)cc1)[C@H](C)[C@](O)(Cn1cncn1)c1ccc(F)cc1F
Tmax [1]: 4.98 min | Activity (Candida albicans [2]): 21.92% | IC50 (Cytochrome P450 1A2): > 10 µM | IC50 at 72 h [3]: 23.5 µM | selectivity ratio [4]: > 100 | MFC (Nakaseomyces glabratus [5]): 500 ng/mL (≈ 0.934 µM) | half-life [6]: 4.42 h | Tmax [7]: 2.67 h | Activity (Cryptococcus neoformans [8]): 8.58% | MIC80 (Candida albicans [9]): 6 ng/mL (≈ 0.0112 µM) | Activity (Cryptococcus neoformans [10]): 3.13% | Activity (Candida albicans [11]): 46.42% | Activity [12]: Non-toxic | IC50 (Cytochrome P450 3A4): 6.62 µM | MIC80 (Candida albicans [13]): 6 ng/mL (≈ 0.0112 µM) | MRT inf [14]: 2.32 h | selectivity ratio [15]: > 100 | MIC80 (Nakaseomyces glabratus [16]): 12 ng/mL (≈ 0.0224 µM) | Cmax [17]: 601 ng/mL | Activity [18]: Non-toxic | Activity (Cryptococcus neoformans [19]): 5.68% | remaining at 1 h [20]: 34.4% | Activity (Cryptococcus neoformans [21]): 26.05% | Activity [22]: Non-toxic | IC50 (Cytochrome P450 2D6): > 10 µM | selectivity ratio [23]: > 100 | selectivity ratio [24]: > 100 | selectivity ratio [25]: > 100 | bioavailability [26]: 63.4% | Activity [27]: Non-toxic | Activity [28]: Non-toxic | Activity [29]: Non-toxic | selectivity ratio [30]: > 100 | Cmax [31]: 2290 ng/mL | Activity_index (Nakaseomyces glabratus [32]): 40
